We go through seven compounds from patent publication US20180325923A1, “FATTY ACID ACETYLATED SALICYLATES AND THEIR USES” (Catabasis Pharmaceuticals, Inc., priority 2008, published 2018).

The experiment relates to TNFα secretion in RAW 264.7 macrophages. The experiment can be described thus: TNFα release assay in RAW 264.7 macrophages stimulated with LPS. The format is cell-based, mouse. From the text: The purpose of this assay is to measure the ability of small molecules to inhibit the secretion of TNFα in cultured macrophages stimulated with lipopolysaccharide (LPS). Treatment of macrophages with LPS activates inflammatory cytokine pathways primarily through the TLR4-NFκB signaling axis. […] Dexamethasone, a potent agonist of the glucocorticoid receptor is used a positive control for inhibition of TNFα release. Day 1: Seed RAW 264.7 macrophages into 96 well culture plates. Remove culture media from RAW 264.7 cell growing in a […] tissue culture flask (cells should be at […] confluence) and add 10 ml of warmed complete growth media (DMEM+10% FBS+1× pen/step). The cells are scraped into suspension using a sterile plate scraper and homogenized by pipetting up and down with a 10 ml serological pipette. The cell concentration is determined using a clinical hematoctyometer. Cells are then diluted to 150,000 cells per ml into growth media. The diluted cells are then transferred to a sterile reagent reservoir and 100 μl of cell suspension is pipetted into each well of a 96 well culture plate using a multichannel pipette (15,000 cells/well). Plates are then incubated at 37° C. under normal tissue culture growth conditions (37° C., humidified CO2 chamber). Day 2: The test compound sample plate is prepared. Test compounds are prepared in growth media. Compounds are delivered to media from 1000× stocks in 100% DMSO (e.g. for a 10 μM final concentration of test compound, deliver 2 μl of 10 mM test compound to 2 ml of media). At least 150 μl of 1× compound in media is added to 96 well sample plate. Note: the perimeter wells of the 96 well plate are not used to avoid edge effects. Twelve sample wells are prepared with media plus 0.1% DMSO (these samples will serve as the vehicle controls; LPS-stimulated and non-stimulated. 10 μM dexamethasone is used as a positive control). Culture plates are then returned to the growth incubator for 2 hours. Cells are stimulated afterwards by adding 25 μl of 50 ng/ml LPS is added to every well (except the 6 unstimulated vehicle control wells: final concentration of 10 ng/ml LPS. Plates are returned to growth incubator for 3 hours. Afterwards, 100 μl of media supernatant is removed and transferred to a 96 well v-bottom sample plate. The media supernatant plate is centrifuged for 5 minutes at 1000 rpm in a swing-bucket centrifuge, pelleting any cellular debris that may remain in supernatant. 80 μl of supernatant is removed from sample plate and transferred to a fresh v-bottom 96 well plate. Cell viability is measured using Celltiter-glo kit. By measuring cell viability, a given compound's effects on TNFα secretion can determine whether effects are due to cytotoxicity or to true inhibition of inflammatory signaling. Add 100 μl of Celltiter-glo reagent to each well of the cell culture plate and afterwards measure the luminescence signal (CPS) of the plate using the Victor 5 plate reader (0.3 second read; 60 second plate shaking prior to read). Cell viability of a given compound at a given concentration is computed as follows: Cell viability=CPS Sample/(Average CPS unstimulated controls)*100 […] Follow Invitrogen/Biosource manufacture's protocol for the mouse TNFα ELISA. Chromogen development is typically conducted for 20-30 minutes as described in the manufacturer's protocol. After addition of stop solution, measure OD 450 nm using the Victor 5 plate reader (0.1 second/well scan). Determine the TNFα secretion percent of control. The following formula is used to determine the TNFα secretion percent of control: [formula] For each test compound, TNFα secretion percent of control can be plotted as a function of compound concentration using a four parameter dose-response curve fit equation (XLFIT Model #205): fit=([…]=([…]=(y-fit) […] A sample graph showing the data obtained by using one of the Compounds of the Invention in the procedure described above in Example 6 is shown in FIG. 2.

Where [1] appears, read: RAW264.7, RAW 264.7 macrophages, 10 ng/ml LPS, mouse TNFα ELISA, read-out: TNFα Secretion, IC50 μM.

Usually IC50 stands for the concentration that gives 50% inhibition. The inhibition is how much of the control response was suppressed.

Where two headings read alike, the source gives them in different places.

With `Nc1ccc(O)c(C(=O)O)c1` [Compound 5-ASA, 5-aminosalicylic acid, reference compound], the IC50 under setting [1] was over 100 µM. Still for that read-out and setting: in the case of `CC/C=C\C/C=C\C/C=C\C/C=C\C/C=C\C/C=C\CCC(=O)NCCNC(=O)c1ccccc1O` [Compound 31, N-(2-(4Z,7Z,10Z,13Z,16Z,19Z)-docosa-4,7,10,13,16,19-hexaenamidoethyl)-2-hydroxybenzamide] it was 15 µM.

Regarding `CC/C=C\C/C=C\C/C=C\C/C=C\C/C=C\C/C=C\CCC(=O)NC(CC(C)C)C(=O)Oc1ccccc1C(=O)OCC` (stereo not shown) [Compound I-1, ethyl 2-(2-(4Z,7Z,10Z,13Z,16Z,19Z)-docosa-4,7,10,13,16,19-hexaenamido-4-methylpentanoyloxy)benzoate], the inhibition at 6.2 µM (Mus musculus, RAW264.7, read-out: TNFα Secretion, % Inhibition) is 24.4%. `CC/C=C\C/C=C\C/C=C\C/C=C\C/C=C\C/C=C\CCC(=O)O` [DHA, all-cis-4,7,10,13,16,19-docosahexaenoic acid, reference compound]: under setting [1], the IC50 is over 100 µM. Turning to `CC/C=C\C/C=C\C/C=C\C/C=C\C/C=C\C/C=C\CCC(=O)Nc1ccc(O)c(C(=O)O)c1` [III-1, 5-(4Z,7Z,10Z,13Z,16Z,19Z)-docosa-4,7,10,13,16,19-hexaenamido-2-hydroxybenzoic acid], the IC50 (Mus musculus, RAW264.7, read-out: TNFα Secretion, IC50 μM) amounted to 146 µM. Regarding `CC/C=C\C/C=C\C/C=C\C/C=C\C/C=C\C/C=C\CCC(=O)NC(CC(C)C)C(=O)Nc1ccc(O)c(C(=O)O)c1` (stereo not shown) [III-6, 5-(2-(4Z,7Z,10Z,13Z,16Z,19Z)-docosa-4,7,10,13,16,19-hexaenamido-4-methylpentanamido)-2-hydroxybenzoic acid], under setting [1], the IC50 was found to be 65.3 µM. With `CC/C=C\C/C=C\C/C=C\C/C=C\C/C=C\C/C=C\CCC(=O)Oc1ccccc1C(=O)O` [Ia-1, 2-((4Z,7Z,10Z,13Z,16Z,19Z)-docosa-4,7,10,13,16,19-hexaenoyloxy)benzoic acid], under setting [1], the IC50 turned out to be 69.2 µM.
